Data reported in patent US8951563B2, “Antibiotic drug delivery and potentiation” (Technion Research & Development Foundation Limited, priority 2009, dated 2015).
≈ marks a conversion by molar mass, not a printed value.

Legend:
[1] = tested on: E. coli AG100; assay: Bactericidal kinetics (time-kill); type: cell-based; settings: sub-MIC concentrations, FIG. 2B
Experimental: Bacteria were sampled at various time intervals, subjected to serial 10-fold dilutions, and plated onto LB-agar. Cell counts were determined using the drop plate method. Plates were incubated overnight at 37° C. and colonies were counted.

[2] = tested on: E. coli AG100; assay: Ethidium bromide (EtBr) uptake assay; type: cell-based; settings: bacteria in PBS, FIG. 2A
Experimental: Cells were grown overnight in LB broth at 37° C. to an optical density of 1 (620 nm), washed twice in 200 μl PBS, and resuspended in the same buffer containing 0.5% glucose. […] Fluorescence was recorded by a BioTeK synergy HT Microplate Reader (excitation, 530 nm; emission, 645 nm).
Ethidium bromide is known for its ability to spontaneously translocate across bacterial membranes and interact with nucleic acids, as can be evidenced by the increase in fluorescence signal.

[3] = tested on: A. aureus; type: cell-based
Experimental: (§1) All bacteria were cultured in Luria-Bertani (LB) medium (10 g/l tryptone, 5 g/l yeast extract, 5 g/l NaCl, pH 7.4).
(§2) Bacteria were grown overnight in LB growth medium and diluted 10,000-fold in same medium.
(§3) Inhibition of proliferation was determined by optical density measurements (620 nm) after incubation overnight at 37° C.

[4] = tested on: E. coli; type: cell-based
Experimental: as §1, §2, §3

[5] = Freeze fracture electron microscopy of cochleates
[6] = Maximal tolerated dose (MTD), single IV injection; settings: mice, free OAK
[7] = Encapsulation efficiency, liposome versus cochleate (MIC and fluorescamine methods); type: physicochemical
[8] = tested on: four MDR clinical isolates of E. coli; type: cell-based
Experimental: as §2, §3

[9] = Molecular charge and RP-HPLC hydrophobicity of polymers; type: physicochemical; settings: HPLC-RP gradient mobile phase
Description: Briefly, the polymers were synthesized while applying the Fmoc active ester chemistry on a fully automated, programmable peptide synthesizer (Applied Biosystems 433A). After cleavage from the resin, the crude product was extracted with 30% acetonitrile in water and purified by RP-HPLC (Alliance Waters), so as to obtain a chromatographic homogeneity higher than 95%. HPLC runs were typically performed on C18 columns (Vydac, 250 mm×4.6 or 10 mm) using a linear gradient of acetonitrile in water (1% per minute), both solvents containing 0.1% trifluoroacetic acid. The purified polymers were subjected to mass spectrometry (ZQ Waters) and NMR analyses to confirm their composition, and stored as a lyophilized powder at −20° C. Prior to being tested, fresh solutions were prepared in water, vortexed, sonicated, centrifuged and then diluted in the appropriate medium.
“Q” represents the overall molecular charge at physiological pH; “ACN (%)” represents the percent of acetonitrile in the HPLC-RP gradient mobile phase at which the polymer was eluted and which corresponds to the estimated hydrophobicity of the polymer. The column headed by “Ref.” indicates prior reference of the OAK if present, wherein a number in parentheses “(##)” corresponds to the SEQ ID NO in U.S. Pat. No. 7,504,381; the letter “R” indicates a polymer published in Radzishevsky I. S. et al. (2008), Chem. Biol., 15(4), pp. 354-362; and “New” indicates a novel polymer disclosed herein.

[10] = Cochleate formation by light microscopy; type: physicochemical; design: key: or above (E!); excellent (E); good (G); poor (P); none (N)
Experimental: Lipid films containing binary mixtures of lipids were made from aliquots of stock solutions in chloroform:methanol (2:1). The solvent was evaporated with a stream of nitrogen gas and the lipids deposited as a film on the walls of a glass tube. The tubes were then placed in a vacuum dessicator for 3 hours. The films were kept under Argon at −20° C. The lipid films were hydrated with buffer solutions of OAK polymers with extensive vortexing, so as to have a lipid to polymer molar ratio of […].
Hydrated films were subjected to freeze thawing three times before imaging, to ensure proper equilibration of OAK with the multilamellar vesicles. A drop of this mixture was placed on a glass slide and covered with a glass coverslip. Light microscopy was carried out at room temperature using a Zeiss Axiovert 100M microscope with a Plan-Neofluar 100×/1.3 oil immersion objective. Images were analyzed with the Zeiss LSM image browser v2.8.
The morphology of the samples of different OAKs and different lipid mixtures could be classified into the following categories.
Table 5 presents the results of cochleate formation with different lipid mixtures of 1:10 lipid to polymer ratio, and a series of OAK polymers, indicated by their alternative denotations and SED ID Nos in parentheses. “Tm” denotes the melting temperature of the lipid bilayer afforded by the given lipid mixture. Some selected samples were further analyzed to confirm the results with freeze fracture electron microscopy for, as indicated in Table 5. Cochleate formation is defined as excellent (E) or above (E!), good (G), poor (P), or none (N) based on the aforementioned comparison, as well as on the abundance of cochleate structures observed in the light microscopy images. Lipid mixtures having a number in parenthesis are samples for which freeze-fracture electron microscopy analysis was conducted. Lipid mixtures having a “+” sign next to the number in parenthesis are samples which were confirmed by freeze-fracture electron microscopy as forming large cochleates with few vesicles and no inverted micellar (HII) morphology (samples 2, 3 and 5), or smaller cochleate structures mixed with other morphologies (samples 0 and 4). Lipid mixtures which contain only anionic lipids are marked with “^A”. Sample 0 is the lipid/OAK system used and presented in Example 1 hereinabove.

[11] = tested on: Klebsiella pneumoniae CI 1286; assay: Whole blood assay (stability and drug release); type: cell-based; settings: whole human blood, 37° C., 4 and 40 multiples of the MIC, FIG. 4D
Experimental: Stability and drug release rates were assessed using the human blood-resistant Klebsiella pneumoniae CI 1286. […] After the specified incubation periods (37° C.), aliquots were plated on LB agar as described above (Antibacterial assays) for CFU count.
The stability of OAK-cochleate and OAK-liposome preparations in whole blood was compared by assessing antibacterial activity against the blood-resistant strain of Klebsiella pneumonia.

**Q.** With CCCCCCCCCCCC(=O)NC(CCCCN)C(=O)NCCCCCCCC(=O)NC(CCCCN)C(=O)NCCCCCCCC(=O)NC(CCCCN)C(=O)NCCCCCCCC(=O)NC(CCCCN)C(=O)NCCCCCCCC(=O)NC(CCCCN)C(=O)NCCCCCCCC(=O)NC(CCCCN)C(=O)NCCCCCCCC(=O)NC(CCCCN)C(=O)NCCCCCCCC(=O)NC(CCCCN)C(N)=O (stereo not drawn) [C12K-7α8, C12K(NC8K)7NH2] as the molecule, how does the “time-kill, OAK alone” value [1] read?
**A.** The value was “significant bactericidal activity at sub-MIC concentrations”.

**Q.** What about the “EtBr uptake (intracellular accumulation)” value [2] of the same molecule?
**A.** The value was “enhanced in a dose-dependent manner”.

**Q.** What about the “MIC A. aureus” value [3] of the same molecule?
**A.** The value was 50 µM (≈ 111 µg/mL).

**Q.** And the “MIC E. coli” value [4]?
**A.** The value was 3.1 µM (≈ 6.86 µg/mL).

**Q.** And the “cochleate formation by freeze fracture electron microscopy” value ([5]; DMPE:TOCL (75:25), DPPE:TOCL (75:25) or DMPE:DOPG (75:25))?
**A.** The value was “strongly promoted the formation of large cochleates”.

**Q.** What about the “Pre-formed and fully formed cochleate Length” value ([5]; POPC:TOCL 75:25, 10:1 lipid to polymer) of the same molecule?
**A.** The value was “(1.8) μm”.

**Q.** What about the “cochleate formation by freeze fracture electron microscopy” value ([5]; POPC:TOCL (75:25) or POPG:TOCL (75:25)) of the same molecule?
**A.** Its value is “weakly promoted cochleate formation”.

**Q.** And the mortality ([6]; 10 mg/kg)?
**A.** The mortality was 33%.

**Q.** What about the “maximal tolerated dose (MTD)” value [6] of the same molecule?
**A.** Its value is ~5 mg OAK/kg.

**Q.** What about the “OAK encapsulation efficiency in cochleates (OAK bound)” value ([7]; cochleates (POPE:TOCL)) of the same molecule?
**A.** Its value is > 80%.

**Q.** And the “OAK encapsulation efficiency in liposomes” value ([7]; liposomes (PC:PEG2000))?
**A.** The value was < 20%.

**Q.** And the “OAK MIC” value [8]?
**A.** Its value is 6.9 µg/mL.

**Q.** What about the “ACN (%) (percent acetonitrile at elution, estimated hydrophobicity)” value [9] of the same molecule?
**A.** The value was 47.5%.

**Q.** And the Cochleate formation ([10]; DMPC:TOCL 75:25, 1:10 lipid to polymer ratio)?
**A.** Its Cochleate formation is “N”.

**Q.** And the Cochleate formation ([10]; DMPE:DOPG 75:25, 1:10 lipid to polymer ratio)?
**A.** Its Cochleate formation is “E”.

**Q.** What about the Cochleate formation ([10]; DMPE:TOCL 75:25, 1:10 lipid to polymer ratio) of the same molecule?
**A.** The Cochleate formation was “E”.

**Q.** What about the Cochleate formation ([10]; DMPG:TOCL 75:25 (anionic lipids only), 1:10 lipid to polymer ratio) of the same molecule?
**A.** The Cochleate formation was “N”.

**Q.** And the Cochleate formation ([10]; DOPE:TOCL 75:25, 1:10 lipid to polymer ratio)?
**A.** Its Cochleate formation is “P”.

**Q.** And the Cochleate formation ([10]; DPPE:TOCL 75:25, 1:10 lipid to polymer ratio)?
**A.** Its Cochleate formation is “E”.

**Q.** And the Cochleate formation ([10]; POPC:TOCL 75:25, 1:10 lipid to polymer ratio)?
**A.** The Cochleate formation was “P”.

**Q.** What about the Cochleate formation ([10]; POPE:DOPG 75:25, 1:10 lipid to polymer ratio) of the same molecule?
**A.** The Cochleate formation was “N”.

**Q.** What about the Cochleate formation ([10]; POPE:DOPG:TOCL 80:15:5, 1:10 lipid to polymer ratio) of the same molecule?
**A.** The Cochleate formation was “N”.

**Q.** And the Cochleate formation ([10]; POPE:TOCL 50:50, lipid to polymer 10:1)?
**A.** The Cochleate formation was “poor cochleate former”.

**Q.** And the Cochleate formation ([10]; POPE:TOCL 75:25, 1:10 lipid to polymer ratio)?
**A.** Its Cochleate formation is “G”.

**Q.** And the Cochleate formation ([10]; POPG:TOCL 75:25 (anionic lipids only), 1:10 lipid to polymer ratio)?
**A.** Its Cochleate formation is “G”.

**Q.** What about the Cochleate formation ([10]; TOCL alone, lipid to polymer 10:1) of the same molecule?
**A.** Its Cochleate formation is “abundance of smaller liposomes”.

**Q.** With C12K(NC8K)7NH2 [C12K-7α8] as the molecule, how does the “antibacterial activity / OAK release in whole blood” value [11] read?
**A.** The value was “maintained rapid bactericidal activity”.
